These are literature values, as cited in patent publication US7147859B2 (Laboratorios Biosintetica LTDA., priority 2000, dated 2006).

This data set concerns cholesterol absorbance. To be noted: in vivo.

For the compound `CCC(CCC(C)C1CCC2C3CC=C4CC(O)CCC4(C)C3CCC12C)C(C)C` (stereo not shown) [Betasitosterol], the “reduction of cholesterol absorbance” value was “up to 68%”.
